Where two headings read alike, the source gives them in different places.
Key:
C. albicans ATCC 28838 = assay: MIC; format: cell-based, Candida albicans; settings: C. albicans ATCC 28838
C. albicans OY 019 = assay: MIC; format: cell-based, Candida albicans; settings: C. albicans OY 019
C. albicans OY 003 = assay: MIC; format: cell-based, Candida albicans; settings: C. albicans OY 003
C. albicans KCTC 1940 = assay: MIC; format: cell-based, Candida albicans; settings: C. albicans KCTC 1940
C. albicans IFO 1385 = assay: MIC; format: cell-based, Candida albicans; settings: C. albicans IFO 1385
C. albicans ATCC 11651 = assay: MIC; format: cell-based, Candida albicans; settings: C. albicans ATCC 11651
C. glabrata = assay: MIC; format: cell-based; settings: Nakaseomyces glabratus; C. glabrata; read-out: MIC
C. krusei = assay: MIC; format: cell-based; settings: Pichia kudriavzevii; C. krusei; read-out: MIC
C. albicans U.K. = assay: MIC; format: cell-based; settings: Candida albicans; C. albicans U.K.; read-out: MIC
C. parapsilosis = assay: MIC; format: cell-based; settings: Lodderomyces parapsilosis; C. parapsilosis; read-out: MIC
E. floccosum = assay: MIC; format: cell-based, Epidermophyton floccosum; settings: E. floccosum
C. albicans ATCC 10231 = assay: MIC; format: cell-based; settings: Candida albicans, ATCC10231; C. albicans ATCC 10231; read-out: MIC
C. glulliermendi = assay: MIC; format: cell-based; settings: C. glulliermendi; read-out: MIC
Epidermophyton floccosum = assay: Antifungal efficacy of creamy formulation against local fungal skin infection; format: in vivo, mouse (SKH/1, hairless, male); settings: 0.5% cream, topical
Procedure: Specific pathogen free SKH/1 male mouse(Hairless) of which weight is 30-35 g and age is 5 weeks, was reared with sterilized water and feed for 12 night/day in the condition of 21-23° C. and of 50% relative humidity. Five mice were allocated by each group. After skin infection, each mouse was taken in separate cage. The strain of microorganism for infection(Epidermophyton floccosum) was cultivated on a flat medium of SDA(Sabouraud Dextrose Agar) for 5-7 days and after confirmation of macrocomidia, 3 ml of RPMI (Rosewell Park Memorial Institute) 1640 media per each flat medium was added thereto and then scraped well using loop to remove hyphae from media. The floating liquid was suspended briefly and then diluted with RPMI 1640 media to adjust the concentration of hyphae to 2×10^6 CFU/ml. Mouse was anesthetized and marked on back site(lumbosacral area) in a shape of circle of which diameter is 1.5 cm. Then, the inner part of marked skin was scratched with sand paper. The scratched part was covered with a filter paper to preserve inoculated microorganism for a long time and thereby stimulating the skin continuously. 0.2 ml of fungus solution of which concentration is adjusted as described above, was inoculated between the skin and filter paper. 5 Days after the inoculation, the filter paper was removed and the infection of skin was examined. The test formulations, 0.5% creamy formulations of the compounds Nos. 62 and 85, 1.0% creamy formulation of Terbinafine(Lamisile cream) and a placebo was applied on the infected areas in a same amount once a day for 5 days. The clinical evaluation on the change of the infected area in 5 days after the inoculation was performed and expressed numerically from 0 to 4. The daily change of the infected area was checked every day. The result of each group was compared with each other.
1: Mild erythema or small number of skin eruption
2: Well-demarcated erythema with scales or mild skin eruption of infected area
3: Wide area of marked skin eruption, scales, swelling or severe skin eruption with partial swelling and scales
4: The same as those of control, or severe skin eruption in entire lesion
The result was calculated as follows;
T: Average score of clinical evaluation in drug treated area
K: Average score of clinical evaluation in placebo control group
Moreover, the antifungal efficacies of the 0.5% creamy formulation of the compounds Nos. 29, 35, 60, 62, 63 and 85, and 1% creamy formulation of Terbinafme (Lamisil cream), which are measured by applying the above formulations on the skin infected with Epidermophyton floccosum of mouse which is the standard animal for the test of local fungal skin infection, i.e, Specific Pathogen Free SKH/1, are described in the following Table 4.

[1] = Candida albicans, ATCC28838, read-out: MIC
[2] = Candida albicans, OY019, read-out: MIC
[3] = Candida albicans, OY003, read-out: MIC
[4] = Candida albicans, KCTC1940, read-out: MIC
[5] = Candida albicans, IFO1385, read-out: MIC
[6] = Candida albicans, ATCC11651, read-out: MIC

| Compound | MIC (C. albicans ATCC 28838; [1]) [µg/mL] | MIC (C. albicans OY 019; [2]) [µg/mL] | MIC (C. albicans OY 003; [3]) [µg/mL] | MIC (C. albicans KCTC 1940; [4]) [µg/mL] | MIC (C. albicans IFO 1385; [5]) [µg/mL] | MIC (C. albicans ATCC 11651; [6]) [µg/mL] | Efficacy (%) 0 day later (Epidermophyton floccosum) [%] | Efficacy (%) 1 day later (Epidermophyton floccosum) [%] | Efficacy (%) 2 day later (Epidermophyton floccosum) [%] | Efficacy (%) 3 day later (Epidermophyton floccosum) [%] | Efficacy (%) 4 day later (Epidermophyton floccosum) [%] | Efficacy (%) 5 day later (Epidermophyton floccosum) [%] | Efficacy (%) 6 day later (Epidermophyton floccosum) [%] | Efficacy (%) 7 day later (Epidermophyton floccosum) [%] | other results |
| --- | --- | --- | --- | --- | --- | --- | --- | --- | --- | --- | --- | --- | --- | --- | --- |
| COc1ccc2c(Cc3ccc(OC(F)(F)F)cc3)c3[n+](cc2c1OC)CCc1cc2c(cc1-3)OCO2 [compound 31, 13-(4-trifluoromethoxybenzyl) berberine chloride] | 0.78 | 1.56 | 1.56 | 1.56 | 3.12 | 1.56 | – | – | – | – | – | – | – | – | – |
| COc1ccc2c(Cc3ccc(-c4ccccc4)cc3)c3[n+](cc2c1OC)CCc1cc2c(cc1-3)OCO2 [compound 35, 13-(4-phenylbenzyl)berberine chloride] | 1.56 | 1.56 | 0.78 | 0.78 | 6.25 | 0.78 | 0 | 36.0 | 57.9 | 68.4 | 72.2 | 74.0 | 75.4 | 76.8 | MIC (C. glabrata): > 100 µg/mL; MIC (C. krusei): 3.12 µg/mL; MIC (C. albicans U.K.): 12.5 µg/mL; MIC (C. parapsilosis): > 100 µg/mL; MIC (E. floccosum; Epidermophyton floccosum, read-out: MIC): 12.5 µg/mL; MIC (C. albicans ATCC 10231): 6.25 µg/mL; MIC (C. glulliermendi): 12.5 µg/mL |
| COc1ccc2c(Cc3cccc(Oc4ccccc4)c3)c3[n+](cc2c1OC)CCc1cc2c(cc1-3)OCO2 [compound 58, 13-(3-phenoxybenzyl)berberine chloride] | 3.12 | 12.5 | 6.25 | 12.5 | 25 | 12.5 | – | – | – | – | – | – | – | – | – |
| C=Cc1ccc(Cc2c3[n+](cc4c(OC)c(OC)ccc24)CCc2cc4c(cc2-3)OCO4)cc1 [compound 60, 13-(4-vinylbenzyl)berberine chloride] | 3.12 | 12.5 | 6.25 | 6.25 | 25 | 6.25 | 0 | 20.0 | 32.0 | 36.0 | 48.6 | 51.5 | 58.6 | 60.5 | – |
| COc1ccc2c(Cc3ccc(C(C)(C)C)cc3)c3[n+](c(O)c2c1OC)CCc1cc2c(cc1-3)OCO2.[Cl-] [compound 64, 8-hydroxy-13-(4-t-butylbenzyl) berberine chloride] | – | – | – | – | – | – | – | – | – | – | – | – | – | – | MIC (C. albicans ATCC 28838): 3.125 µg/mL; MIC (C. albicans OY 019): 0.4 µg/mL; MIC (C. albicans OY 003): 6.25 µg/mL; MIC (E. floccosum): > 100 µg/mL; MIC (C. albicans KCTC 1940): 12.5 µg/mL; MIC (C. albicans IFO 1385): 25 µg/mL; MIC (C. albicans ATCC 11651): 3.125 µg/mL |
| COc1cc2c(cc1OC)-c1c(Cc3ccc(C(C)(C)C)cc3)c3ccc(OC)c(OC)c3c[n+]1CC2 [compound 77, 13-(4-t-butylbenzyl)palmatine iodide] | 0.78 | 1.56 | 0.78 | 1.56 | 3.12 | 0.78 | – | – | – | – | – | – | – | – | – |

From patent publication US6008356A, “Pharmaceutically available protoberberine salts derivatives, and protoberberine salts derivatives, and protoberberine derivatives and salts thereof” (priority 1998, dated 1999)
